# Measurements taken from PubChem BioAssay AID1996.
# Details: buffer; pH 7.4; 200.0 µM
row,Compound,solubility kinetic
1,CC(NC(=O)c1ccco1)C(=O)N1CC=C(c2ccccc2)CC1 (configuration not stated),> 48.7 µg/mL
2,N#Cc1ccc(C(=O)N(Cc2ccccc2)c2ccccc2)cc1,26.4 µg/mL
3,CC(=O)c1ccc(CC2SC(N)=NC2=O)cc1 (configuration not stated),> 37.2 µg/mL
4,COc1ccc(C(=O)NC2CCCCCCC2)cc1OC,15.2 µg/mL
5,CCCN(CCC)C(=O)Nc1ccc(F)cc1F,> 38.4 µg/mL
6,COc1ccccc1NC(=O)CN1CCSc2ccccc21,3.1 µg/mL
7,Cl.Clc1ccccc1CN1CCNCC1,> 37.1 µg/mL
8,O=C(COc1ccc(F)cc1)N1CCC(Cc2ccccc2)CC1,18.8 µg/mL
9,COc1cccc(NC(=O)NC2CCCCCCC2)c1,5.2 µg/mL
10,Cc1ccc(SCCc2cc[n+](CC(=O)c3ccccc3)cc2)cc1,50.8 µg/mL
11,COc1ccc(CCC(=O)NCC23CC4CC(CC(C4)C2)C3)cc1,30.7 µg/mL
12,Cc1cc(Cl)nc(NC(=O)Nc2cccc(Cl)c2)n1,< 0.2 µg/mL
13,O=C(CNS(=O)(=O)c1ccc(Br)cc1)Nc1ccc2c(c1)OCCO2,8.7 µg/mL
14,CCc1ccc(NC(=S)Nc2ccc3[nH]c(=O)[nH]c3c2)cc1,13.5 µg/mL
15,Cc1ccc(Nc2ncnc3sccc23)c(C)c1,> 38.3 µg/mL
16,CCS(=O)(=O)N1CCN=C1SC(C)c1ccccc1 (configuration not stated),41.4 µg/mL
17,Cc1ccc(C(=O)NCCCNC(=O)c2ccccc2C)cn1,> 46.7 µg/mL
18,CC(C)CC1(C)NC(=O)N(CC(=O)Nc2ccccc2Br)C1=O (configuration not stated),> 57.3 µg/mL
19,O=C(NCCOc1ccc(Cl)cc1)c1ccc2c(c1)OCCO2,6.3 µg/mL
20,CC(=O)c1c(OC(=O)c2cccc(Cl)c2)c2ccccc2n1C,< 0.7 µg/mL
21,Cc1ccc(NC(=S)NCCN2CCOCC2)cc1F,> 44.6 µg/mL
22,N#Cc1ccc(NC(=O)CCNC(=O)c2ccco2)cc1Cl,5 µg/mL
23,Cc1cc(=O)[nH]c2ccc(S(=O)(=O)NCc3ccccc3)cc12,2.5 µg/mL
24,CCC1CN(C(=O)NCc2ccc(F)cc2)c2cc(C)ccc2O1 (configuration not stated),4.3 µg/mL
25,CCOc1ccc(NC(=O)NC2CCCc3ccccc32)cc1 (configuration not stated),0.4 µg/mL

row,Compound,solubility kinetic
1,CS(=O)(=O)N(CC(=O)NC1CCCC1)C1CCCCC1,> 45.4 µg/mL
2,O=C(Nc1ccccc1)Nc1nc2ccccc2s1,< 0.2 µg/mL
3,O=c1oc2ccccc2n1Cc1ccccc1,8.6 µg/mL
4,Cc1cc(C(=O)NC2=NCCS2)c2ccccc2n1,> 40.7 µg/mL
5,Cc1ccccc1C(=O)NC(=S)N(C)CCc1ccccn1,> 47 µg/mL
6,CCSC1=C(C#N)C(CC(C)C)C2=C(CCCC2=O)N1 (configuration not stated),41.9 µg/mL
7,O=S(=O)(c1ccccc1C(F)(F)F)N1CCN(c2ncnc3sccc23)CC1,4.6 µg/mL
8,O=C(Cc1c(Cl)cccc1Cl)Nc1ccncc1,> 42.2 µg/mL
9,O=C(NC12CC3CC(CC(C3)C1)C2)c1cccnc1Cl,22.3 µg/mL
10,O=C(COC(=O)c1cc[n+]([O-])cc1)Nc1cccc(F)c1,> 43.5 µg/mL
11,O=C(c1ccccc1F)N1CCOCC1,> 31.4 µg/mL
12,Cc1ccc2c(c1)C(=O)C(=O)N2CCCOc1ccccc1C,4.9 µg/mL
13,NC(=O)C1CCN(S(=O)(=O)c2ccccc2[N+](=O)[O-])CC1,39.8 µg/mL
14,O=C(O)c1cccc(S(=O)(=O)N2CCc3ccccc3C2)c1,26.2 µg/mL
15,Cc1ccc(CSCc2ccc(C(=O)NCC3CCCO3)o2)cc1 (configuration not stated),39.4 µg/mL
16,O=C(Cc1ccc(Cl)cc1)Nc1cc(Cl)ccn1,3.5 µg/mL
17,COC(=O)CN1C(=O)N/C(=C/c2cc(OC)c(OC)cc2C)C1=O,46.9 µg/mL
18,Fc1ccccc1-c1csc(-c2cccnc2)n1,0.4 µg/mL
19,O=c1nc(SCc2cccc(C(F)(F)F)c2)nc2ccccn12,7 µg/mL
20,Cc1cc(C)c(S(=O)(=O)NCc2ccc3c(c2)OCO3)c(C)c1,1.7 µg/mL
21,Nc1c(Br)c(=O)[nH]c(=O)n1-c1ccccc1,> 42.3 µg/mL
22,O=S(=O)(NC1Cc2ccccc2C1)c1ccccc1,> 41 µg/mL
23,COc1ccc(Cl)cc1NC(=S)N1CC(C)OC(C)C1 (configuration not stated),> 47.2 µg/mL
24,CN(c1c[nH]c(=O)[nH]c1=O)C1CCCCC1,> 33.5 µg/mL
25,COc1ccc(NS(=O)(=O)c2cccc(C(=O)O)c2)cc1S(=O)(=O)N1CCOCC1,> 68.5 µg/mL

row,Compound,solubility kinetic
1,CCCCCCCn1c(C)nnc1-c1cnn(C)c1N,> 41.5 µg/mL
2,c1ccc(CN2CCOCCOCCOCCOCC2)cc1,43.2 µg/mL
3,Cc1ccc(S(=O)(=O)NC(=O)NC(C)Cc2ccccc2)cc1 (configuration not stated),> 49.9 µg/mL
4,CC(C)c1ccc(S(=O)(=O)N2CCN(C(=O)C3=COCCO3)CC2)cc1,18.3 µg/mL
5,N#Cc1ccc(CSc2nnc3ccccn23)cc1,> 39.9 µg/mL
6,Cc1ccccc1C(=O)OC1CCCN(C)C1.Cl (configuration not stated),39.9 µg/mL
7,Cc1cccc(C(=O)OCC(=O)N2CC(C)CC(C)C2)c1C (configuration not stated),> 45.5 µg/mL
8,CCOc1ccccc1NC(=O)C1CCN(S(C)(=O)=O)CC1,> 49 µg/mL
9,O=C(/C=C/c1ccccc1)OCCN=C1NS(=O)(=O)c2ccccc21,8.6 µg/mL
10,O=C(NCC(=O)N1CCCC1)c1ccccc1F,> 37.5 µg/mL
11,O=C(Nc1ccc(F)cc1)N1CCCN(c2ccc(C(F)(F)F)cn2)CC1,2.2 µg/mL
12,COc1ccc(CN2CCc3ccccc3C2)c(OC)c1,29.6 µg/mL
13,C=CCNC(=O)C(=O)NCCCN1CCOCC1,> 38.3 µg/mL
14,COc1cc(CCC(=O)NCC2CCCO2)cc(OC)c1OC (configuration not stated),44 µg/mL
15,CCOC(=O)N1CCc2c(sc3[nH]c(=S)[nH]c(=S)c23)C1,43.1 µg/mL
16,O=C(NCCc1ccccc1)C1COc2ccccc2O1 (configuration not stated),> 42.5 µg/mL
17,Cn1c(O)c(C=Nc2ccc(Br)cc2)c(=O)n(C)c1=O,1.2 µg/mL
18,O=P(c1ccccc1)(c1ccccc1)C(O)c1ccccn1 (configuration not stated),> 46.4 µg/mL
19,O=C(Cc1c[nH]c2ccccc12)NCc1ccccc1F,42.3 µg/mL
20,CCOc1cccc(C(=O)Nc2ccc3oc(-c4cccnc4)nc3c2)c1,< 0.3 µg/mL
21,CCOC(=O)Cc1csc(-n2sc3ccccc3c2=O)n1,29.8 µg/mL
22,Cc1c(Cl)cccc1NC(=O)C1CCCN(S(C)(=O)=O)C1 (configuration not stated),7.3 µg/mL
23,Cn1c(NNC(=O)c2ccccc2F)cc(=O)n(C)c1=O,> 43.8 µg/mL
24,O=C1CN=C(c2cc([N+](=O)[O-])ccc2Cl)c2cc([N+](=O)[O-])ccc2N1,1.6 µg/mL
25,CN(C)c1ccc(C(=O)OCC(=O)Nc2cccc(S(=O)(=O)N3CCCC3)c2)cc1,5.5 µg/mL

row,Compound,solubility kinetic
1,O=C(c1cc(-c2cccc(O)c2)on1)N1CCCCCC1,40.8 µg/mL
2,Cc1cc(C)c2nc(N3CCOCC3)c(C#N)cc2c1,0.2 µg/mL
3,CCCCCCC1CC(=O)NC(=S)N1 (configuration not stated),28.4 µg/mL
4,CC1CN(C(=O)COC(=O)c2c(Cl)cccc2Cl)CC(C)O1 (configuration not stated),49.5 µg/mL
5,O=C(Cc1cccs1)NCCc1ccc(Cl)cc1,40.5 µg/mL
6,Cc1ccccc1C(=O)OC1CCN(C)CC1.Cl,> 40.5 µg/mL
7,CCc1ccccc1NC(=O)C1COc2ccccc2O1 (configuration not stated),33.4 µg/mL
8,O=C1CC(c2ccccc2)=Nc2ccc(Br)cc2N1,0.9 µg/mL
9,O=S(=O)(Cc1ccc(Cl)cc1)N1CCCCCC1,4.5 µg/mL
10,Cc1ccc(NC(=O)CCN2C(=O)OC(C)(C)C2(C)O)cc1 (configuration not stated),34 µg/mL
11,COc1ccc(Nc2nc(C)cc(C)c2C#N)c(OC)c1,< 0.2 µg/mL
12,O=C(CN1CCCCC1)Nc1ccc(C(F)(F)F)cc1Cl,2.5 µg/mL
13,O=[N+]([O-])c1ccc2nc(C3CCCCC3)[nH]c2c1,31.5 µg/mL
14,O=C(Nc1ccccc1C(=O)Nc1ccccc1)c1ccco1,0.9 µg/mL
15,CCCNC(=O)c1ccccc1NC(=O)C1=CSCCO1,> 46 µg/mL
16,O=C(COC(=O)c1cccc(C(F)(F)F)c1)NC(=O)NC1CCCC1,5.2 µg/mL
17,COc1cccc(NC(=O)c2sc(Cl)nc2C)c1,> 42.4 µg/mL
18,COc1ccc(-c2c(C)nn(-c3ccccc3)c2NC(C)=O)cc1OC,> 52.7 µg/mL
19,CCCCOc1ccc(-c2c(C#N)c(N)[nH]c(=S)c2C#N)cc1,35.6 µg/mL
20,FC(F)(F)c1ccc(-c2csc(-c3ccno3)n2)cc1,< 0.3 µg/mL
21,O=C(/C=C/c1ccco1)NCCc1ccccc1,33.1 µg/mL
22,CS(=O)(=O)c1ccc(C(=O)OCC(=O)NCc2cccs2)cc1[N+](=O)[O-],16.1 µg/mL
23,CC1CCCC(C)N1C(=O)COC(=O)CNC(=O)c1ccccc1F (configuration not stated),> 52.6 µg/mL
24,O=C(/C=C/c1ccc(F)cc1)NC(=S)Nc1ccccc1,1.3 µg/mL
25,O=C(CN1CCOCC1)Nc1ccc(Cl)cn1,> 38.4 µg/mL

row,Compound,solubility kinetic
1,O=C(CSc1nncs1)NC(=O)NC1CCCC1,> 43 µg/mL
2,Fc1ccccc1NC(=S)NCc1ccc(Cl)cc1,11.2 µg/mL
3,CCOP(=O)(OCC)C(Cc1ccccc1)NC(C)=O (configuration not stated),43.5 µg/mL
4,O=C(Nc1ccccc1)Nc1ccc(Oc2cccnc2)nc1,20.5 µg/mL
5,CCc1ccnc(NC(=O)NS(=O)(=O)c2ccc(C)cc2)c1,47.6 µg/mL
6,CC(=O)c1c(C)[nH]c(C(=O)OCc2ccc([N+](=O)[O-])cc2)c1C,2.1 µg/mL
7,Cl.NCCCCCc1nnc(SCC(N)=O)o1,> 42.1 µg/mL
8,Cc1ccc(S(N)(=O)=O)c(C)c1N1CCCC1=O,> 40.2 µg/mL
9,CCn1ccnc1C(O)c1cccc2ccccc12 (configuration not stated),> 37.8 µg/mL
10,C=CCNC(=O)COC(=O)CCC(=O)c1cccs1,> 42.2 µg/mL
11,COc1ccccc1NC(=O)C/C(N)=N/OCC(=O)Nc1cccc(Cl)c1,> 58.6 µg/mL
12,CC(C)N1CCN(C2CSCCSC2)CC1CCO (configuration not stated),42.7 µg/mL
13,Cn1cnc(S(=O)(=O)Nc2ccc(OC(F)F)cc2)c1,> 45.5 µg/mL
14,COc1cc(C(=O)NC23CC4CC(CC(C4)C2)C3)cc(OC)c1OC,< 0.7 µg/mL
15,O=C(Nc1ccc2nc3n(c(=O)c2c1)CCCC3)c1ccccc1F,48 µg/mL
16,COc1ccc(OC)c(/C=N/NC(=O)C(O)c2ccccc2)c1 (configuration not stated),> 47.2 µg/mL
17,Cc1nnc(NC(=O)CN2C(=O)NC3(CCCC3)C2=O)s1,> 46.4 µg/mL
18,CS(=O)(=O)N1CCCC(C(=O)Nc2ccccc2)C1 (configuration not stated),42.2 µg/mL
19,COc1ccc2[nH]c(C(=O)N3CCN(C)CC3)c(C)c2c1,> 43.1 µg/mL
20,O=C(CNS(=O)(=O)c1cccc(C(F)(F)F)c1)NC1CCCCCC1,48.7 µg/mL
21,O=c1[nH]sc2cc(F)ccc12,22.7 µg/mL
22,O=S(=O)(Nc1cc(F)ccc1F)c1cccc2nonc12,> 46.7 µg/mL
